Laboratory results reported in PubChem BioAssay (NCI).
Values joined by “and” are separate entries in the source; they are usually repeats but may differ in a detail not shown here. Equal entries are not always repeated.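 Protocol summary: plate cells (96-well), add compound at 5 concentrations, incubate 48 h, interpolate endpoints linearly. The concentration for 50% growth inhibition is given as GI50. TGI is the concentration that stops growth completely.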

Key:
Assay in all cases: DTP human tumour cell line panel, 48 h
K-562 leukemia = test system: K-562 leukemia
M14 melanoma = test system: M14 melanoma
SNB-19 CNS = test system: SNB-19 CNS
OVCAR-8 ovarian = test system: OVCAR-8 ovarian
NCI-H522 lung = test system: NCI-H522 lung
HCT-15 colon = test system: HCT-15 colon
HOP-92 NSCLC = test system: HOP-92 NSCLC
MCF7 breast = test system: MCF7 breast
MDA-MB-231 breast = test system: MDA-MB-231 breast
T-47D breast = test system: T-47D breast

SMILES | TGI (K-562 leukemia) [µM] | TGI (M14 melanoma) [µM] | TGI (SNB-19 CNS) | TGI (OVCAR-8 ovarian) [µM] | TGI (NCI-H522 lung) [µM] | TGI (HCT-15 colon) [µM] | TGI (HOP-92 NSCLC) | GI50 (K-562 leukemia) [µM] | GI50 (M14 melanoma) [µM] | GI50 (SNB-19 CNS) | GI50 (OVCAR-8 ovarian) [µM] | GI50 (MCF7 breast) [µM] | TGI (MCF7 breast) [µM] | GI50 (HOP-92 NSCLC) | GI50 (MDA-MB-231 breast) [µM] | GI50 (NCI-H522 lung) [µM] | GI50 (HCT-15 colon) | TGI (MDA-MB-231 breast) [µM] | GI50 (T-47D breast) | TGI (T-47D breast)
COc1ccc(CCC2NCCc3cc(OC)c(OC)cc32)cc1 (centres undefined) | > 100 | > 100 | > 100 µM | > 100 | > 100 | > 100 |  |  |  |  |  |  |  |  |  |  |  |  |  | 
CCc1cccc(C(C)CC)c1NC(=O)CC1C(=O)Nc2ccccc2S1=O (centres undefined) | > 100 | 55.8 | > 100 µM | > 100 |  | > 100 | 46.3 µM |  |  |  |  |  |  |  |  |  |  |  |  | 
COc1ccc(-c2[nH]ncc2-c2cc(OC)c(OC)c(OC)c2)cc1 | > 34.4 | 0.852 | > 100 µM | > 33.2 | < 0.01 | > 80.6 | 0.901 µM | < 0.01 | < 0.01 | < 0.01 µM | < 0.0124 | < 0.01 | 22.5 | < 0.01 µM | 0.0271 | < 0.01 | < 0.01 µM |  |  | 
CCCCC#Cc1cccc(=O)o1 |  | > 100 | > 100 µM | > 100 | > 100 |  | > 100 µM |  | 4.5 | > 100 µM | > 100 | 8.9 | > 100 | 15.3 µM | 6.43 | 7.16 |  | > 100 | 29.2 µM | > 100 µM
Cc1ccc(N(C(=O)CC(=O)N2N=C(c3ccccc3)C(N=Nc3ccc([N+](=O)[O-])cc3)C2=O)C(=O)c2ccc(Cl)cc2)cc1 (centres undefined) | > 71.3 | 18.4 | 60.1 µM | 38.3 | 9.76 | > 48.6 | 56.5 µM |  |  |  |  |  |  |  |  |  |  |  |  | 
CN(C)CCCC(=O)Nc1ccc(Cn2nnc3c2C(=O)c2nnn(Cc4ccc(NC(=O)CCCN(C)C)cc4)c2C3=O)cc1 | 55.9 | 24.3 |  | 29.3 | 5.06 | > 100 | 5.82 µM | 5.45 | 5.97 |  | 5.25 | 1.45 | 3.52 | 2.51 µM |  | 2.15 | 56.8 µM |  |  | 
CN1c2ccccc2C(C)(C)C12CC(c1ccc(Cl)c(S(=O)(=O)N3CCCC3)c1)=NO2 (centres undefined) |  | > 100 | > 100 µM | > 100 | > 100 | > 100 |  |  | > 100 | > 100 µM | > 100 | > 100 | > 100 |  | > 100 | > 100 | 0.118 µM | > 100 | > 100 µM | > 100 µM
COc1cc2c3c(n(CCCNCCN4CCOCC4)c(=O)c2cc1OC)-c1cc2c(cc1C3=O)OCO2 | > 67.1 |  | 50 µM and > 55.2 µM | 17.4 | > 100 |  | 12.4 µM and 3.92 µM | 7.72 |  | 2.23 µM and 0.77 µM | 4.37 |  |  | 5.79 µM and 1.26 µM | 2.18 | 2.15 | 0.453 µM and 2.14 µM | 5.72 | 2.56 µM and 23.5 µM | 50 µM and 70.2 µM
CC1=N/C(=C\c2cccc3ccccc23)C(=O)O1 | > 100 | > 100 | > 100 µM | > 100 | > 100 | > 100 | > 100 µM |  |  |  |  |  |  |  |  |  |  |  |  | 
O=C1CCC(=O)C12CCc1cccc(O)c12 | > 100 | > 100 |  | > 100 |  | > 100 | > 100 µM |  |  |  |  |  |  |  |  |  |  |  |  | 
C=CCC(C)(C(=O)NCCC)C(=O)c1ccccc1O (centres undefined) | > 100 | > 100 | > 100 µM | > 100 | > 100 | > 100 |  |  |  |  |  |  |  |  |  |  |  |  |  | 
O=C(/C=C/c1ccc(Cl)cc1)c1ccncc1 | > 100 | > 100 | > 100 µM | > 100 | > 100 | > 100 | > 100 µM |  |  |  |  |  |  |  |  |  |  |  |  | 
Cc1ccc([Se][Se]c2ccc(C)cc2)cc1 | 28 |  | > 100 µM | > 100 | 16.3 | > 100 | 22.3 µM |  |  |  |  |  |  |  |  |  |  |  |  | 
CN(Cc1ccccc1)C1(N(C)Cc2ccccc2)CC1 | > 100 | > 100 | > 100 µM | > 100 | > 100 | > 100 | > 100 µM |  |  |  |  |  |  |  |  |  |  |  |  | 
O=C1NC(=S)NC(=O)C1=Cc1ccc2ccccc2n1 | > 100 | > 100 | > 100 µM | > 100 | > 100 | > 100 | > 100 µM |  |  |  |  |  |  |  |  |  |  |  |  | 
CN(C)CCNC(=O)c1cccc2c1nc(-c1ccccn1)c1ccccc12 | 48.8 | 32.2 | > 100 µM | 34.5 |  | 30.6 | 39.7 µM |  |  |  |  |  |  |  |  |  |  |  |  | 
COc1ccc(/C=C/C(C(=O)O)C(=O)O)cc1 | > 100 | > 100 | > 100 µM | > 100 | > 100 | > 100 | > 100 µM |  |  |  |  |  |  |  |  |  |  |  |  | 
Cc1nn(C)c(=S)n(C)c1=O | > 100 | > 100 | 41 µM | 27.3 | 0.822 | > 100 | 1.42 µM |  |  |  |  |  |  |  |  |  |  |  |  | 
N#CC(=S)Nc1ccc(F)cc1 | > 100 | > 100 | > 100 µM | > 100 |  | > 100 | 68.3 µM |  |  |  |  |  | > 100 |  |  |  |  | > 100 |  | > 100 µM
CC1=C(c2cc(C(=O)Nc3cccc(C(F)(F)F)c3)nc(NC#N)n2)Sc2ccccc2N1 | > 100 | > 100 | > 100 µM |  |  | > 100 | > 100 µM |  |  |  |  |  |  |  |  |  |  |  |  | 
COc1ccc(S(=O)(=O)N/N=C(\C)CN2C(=O)c3ccccc3C2=O)cc1 | > 100 | > 100 | > 100 µM | > 100 | > 100 | > 100 |  |  |  |  |  |  |  |  |  |  |  |  |  | 
C1C[OH+]CC[OH+]CC[OH+]CC[OH+]CC[OH+]CC[OH+]1.[Cl-].[Ta+5] | > 100 | > 100 | > 100 µM | > 100 | > 100 | > 100 | > 100 µM | > 100 | > 100 | 24.3 µM | > 100 |  |  | > 100 µM |  | > 100 | > 100 µM |  |  | 
Cc1nn(C)c(=O)c2nn(-c3ccccc3)c(C)c12 | > 100 | > 100 | > 100 µM | > 100 | > 100 | > 100 |  |  |  |  |  |  |  |  |  |  |  |  |  | 
Cc1cccc(N2C(=O)C(=O)C(c3nc4ccccc4s3)C(=O)C2=O)c1C | > 100 | > 100 | > 100 µM | > 100 | > 100 | > 100 | > 100 µM |  |  |  |  |  |  |  |  |  |  |  |  | 
